# Target: G12C K-Ras4B (1-169) (Homo sapiens (Human), UniProt P01116, G12C)
# Test: Test of compounds on whether to bind to KRASG12C (LC-MS compound binding rate)
# Conditions: final compound concentration of 2 μM, 1 μM protein, 25° C. for 2 hours
# Experimental: Test compounds were prepared in the form of a 10 mM DMSO solution.
# K-Ras4B (1-169) and G12C K-Ras4B (1-169) proteins were mixed and diluted with a buffer (1×TBS, 0.1 mM TCEP) to prepare individual 1 μM protein solutions. A 10 mM test compound was diluted tenfold with DMSO to make a 1 mM solution, and then diluted fivefold with DMSO to make a 200 μM solution. The 200 μM solution was further diluted fivefold to make a 40 μM solution. When the final compound concentration was 10 μM, 1 μL of a 200 μM test compound was added to 19 μL of a 1 μM protein solution. When the final compound concentration was 2 μM, 1 μL of a 40 μM test compound was added to 19 μL of a 1 μM protein solution. The mixtures were stored in an incubator at 25° C. for 2 hours, and 80 μL of a 1×TBS solution containing 0.2% formic acid was added thereto to end the reaction, followed by LC-MS measurement. LC-MS measurement was performed using Xevo G2-S Q-Tof manufactured by Waters, and reverse-phase chromatography was performed with a desalting column. A mass spectrum of positive ions was obtained by electrospray. For a mass spectrum, a spectrum of a polyvalent ion was collectively converted to a molecular weight by using OpenLynx software by the MaxEnt technique, and a compound binding rate was obtained from the ratio of a signal intensity that corresponds to the molecular weight of a protein to a signal intensity that corresponds to the molecular weight of a compound binding to the protein.
# By obtaining the compound binding rate for K-Ras4B (1-169) and the compound binding rate for G12C K-Ras4B (1-169) at the same time, information of the selectivity for G12C K-Ras4B (1-169) was obtained at the same time.
# The test compounds were measured at their final compound concentration of 2 μM. […] Almost no compounds of the present invention binded to K-Ras4B (1-169). The “binding rate” (%) for each of K-Ras4B (1-169) and G12C K-Ras4B (1-169) refers to the ratio of the signal intensity of binded forms to the sum of the signal intensity of non-binded forms and the signal intensity of binded forms.
# Chain of G12C K-Ras4B (1-169) (P01116 other isoform, or with tags, fused parts or gaps G12C): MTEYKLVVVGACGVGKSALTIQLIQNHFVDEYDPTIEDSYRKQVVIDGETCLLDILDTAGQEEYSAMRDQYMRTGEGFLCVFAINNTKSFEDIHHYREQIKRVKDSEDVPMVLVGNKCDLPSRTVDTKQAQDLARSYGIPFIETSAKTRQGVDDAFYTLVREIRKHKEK
row,SMILES,binding rate for G12C K-Ras4B (1-169)
1,"C=CC(=O)N1CC(NC(=O)c2c(C)nc(CNc3n[nH]c4cc(Cl)c(C(C)(C)C)cc34)n2CC(F)(F)F)C1 [Example 22, N-(1-acryloylazetidin-3-yl)-2-(((5-(tert-butyl)-6-chloro-1H-indazol-3-yl)amino)methyl)-4-methyl-1-(2,2,2-trifluoroethyl)-1H-imidazole-5-carboxamide]","B (a binding rate of 60% or more and less than 80% is rated “B,”)"
2,"C=CC(=O)N1CC(NC(=O)c2c(C)nc(CNc3n[nH]c4cc(Cl)c(C(C)(C)C)cc34)n2C2CC2)C1 [Example 23, N-(1-acryloylazetidin-3-yl)-2-(((5-(tert-butyl)-6-chloro-1H-indazol-3-yl)amino)methyl)-1-cyclopropyl-4-methyl-1H-imidazole-5-carboxamide]","A (a binding rate of 80% or more is rated “A,”)"
3,"C=CC(=O)N1CC(NC(=O)c2c(C)nc(CNc3n[nH]c4cc(Cl)c(C(C)(C)C)cc34)n2C(C)(C)C)C1 [Example 24, N-(1-acryloylazetidin-3-yl)-1-(tert-butyl)-2-(((5-(tert-butyl)-6-chloro-1H-indazol-3-yl)amino)methyl)-4-methyl-1H-imidazole-5-carboxamide]","C (a binding rate of 40% or more and less than 60% is rated “C,”)"
4,"C=CC(=O)N1CC(NC(=O)c2c(C(F)(F)F)nc(CNc3n[nH]c4cc(Cl)c(C(C)(C)C)cc34)n2C)C1 [Example 25, N-(1-acryloylazetidin-3-yl)-2-(((5-(tert-butyl)-6-chloro-1H-indazol-3-yl)amino)methyl)-1-methyl-4-(trifluoromethyl)-1H-imidazole-5-carboxamide]","A (a binding rate of 80% or more is rated “A,”)"
5,"C=CC(=O)N1CC(NC(=O)c2c(I)nc(CNc3n[nH]c4cc(Cl)c(C(C)(C)C)cc34)n2C)C1 [Example 26, N-(1-acryloylazetidin-3-yl)-2-(((5-(tert-butyl)-6-chloro-1H-indazol-3-yl)amino)methyl)-4-iodo-1-methyl-1H-imidazole-5-carboxamide]","A (a binding rate of 80% or more is rated “A,”)"
6,"C=CC(=O)N1CC(NC(=O)c2c(Br)nc(CNc3n[nH]c4cc(Cl)c(C(C)(C)C)cc34)n2C)C1 [Example 27, N-(1-acryloylazetidin-3-yl)-4-bromo-2-(((5-(tert-butyl)-6-chloro-1H-indazol-3-yl)amino)methyl)-1-methyl-1H-imidazole-5-carboxamide]","A (a binding rate of 80% or more is rated “A,”)"
7,"C=CC(=O)N1CC(NC(=O)c2c(C#N)nc(CNc3n[nH]c4cc(Cl)c(C(C)(C)C)cc34)n2C)C1 [Example 28, N-(1-acryloylazetidin-3-yl)-2-(((5-(tert-butyl)-6-chloro-1H-indazol-3-yl)amino)methyl)-4-cyano-1-methyl-1H-imidazole-5-carboxamide]","B (a binding rate of 60% or more and less than 80% is rated “B,”)"
8,"C=CC(=O)N1CC(NC(=O)c2c(F)nc(CNc3n[nH]c4cc(Cl)c(C(C)(C)C)cc34)n2C)C1 [Example 30, N-(1-acryloylazetidin-3-yl)-2-(((5-(tert-butyl)-6-chloro-1H-indazol-3-yl)amino)methyl)-4-fluoro-1-methyl-1H-imidazole-5-carboxamide]","C (a binding rate of 40% or more and less than 60% is rated “C,”)"
9,"C=CC(=O)N1CC(NC(=O)c2c(CC)nc(CNc3n[nH]c4cc(Cl)c(C(C)(C)C)cc34)n2C)C1 [Example 31, N-(1-acryloylazetidin-3-yl)-2-(((5-(tert-butyl)-6-chloro-1H-indazol-3-yl)amino)methyl)-4-ethyl-1-methyl-1H-imidazole-5-carboxamide]","D (a binding rate of 20% or more and less than 40% is rated “D,”)"
10,"C=CC(=O)N1CC(NC(=O)c2c(C(F)(F)F)nc(CNc3n[nH]c4cc(Cl)c(C(C)(C)C)cc34)n2C(C)C)C1 [Example 32, N-(1-acryloylazetidin-3-yl)-2-(((5-(tert-butyl)-6-chloro-1H-indazol-3-yl)amino)methyl)-1-isopropyl-4-(trifluoromethyl)-1H-imidazole-5-carboxamide]","B (a binding rate of 60% or more and less than 80% is rated “B,”)"
11,"C=CC(=O)N1CC(NC(=O)c2c(F)nc(CNc3n[nH]c4cc(Cl)c(C(C)(C)C)cc34)n2C(C)C)C1 [Example 34, N-(1-acryloylazetidin-3-yl)-2-(((5-(tert-butyl)-6-chloro-1H-indazol-3-yl)amino)methyl)-4-fluoro-1-isopropyl-1H-imidazole-5-carboxamide]","A (a binding rate of 80% or more is rated “A,”)"
12,"[2H]C([2H])(Nc1n[nH]c2cc(Cl)c(C(C)(C)C)cc12)c1nc(C(F)F)c(C(=O)NC2CN(C(=O)C=C)C2)n1C(C)C [Example 36, N-(1-acryloylazetidin-3-yl)-2-(((5-(tert-butyl)-6-chloro-1H-indazol-3-yl)amino)methyl-d2)-4-(difluoromethyl)-1-isopropyl-1H-imidazole-5-carboxamide]","B (a binding rate of 60% or more and less than 80% is rated “B,”)"
13,"C=CC(=O)N1CC(NC(=O)c2cnc(CNc3n[nH]c4cc(Cl)c(C)cc34)n2C)C1 [Example 37, N-(1-acryloylazetidin-3-yl)-2-(((6-chloro-5-methyl-1H-indazol-3-yl)amino)methyl)-1-methyl-1H-imidazole-5-carboxamide]","C (a binding rate of 40% or more and less than 60% is rated “C,”)"
14,"C=CC(=O)N1CC(NC(=O)c2cnc(CNc3n[nH]c4cc(Cl)c(C=C)cc34)n2C)C1 [Example 38, N-(1-acryloylazetidin-3-yl)-2-(((6-chloro-5-vinyl 1H-indazol-3-yl)amino)methyl)-1-methyl-1H-imidazole-5-carboxamide]","C (a binding rate of 40% or more and less than 60% is rated “C,”)"
15,"C=CC(=O)N1CC(NC(=O)c2cnc(CNc3n[nH]c4cc(Cl)c(CC)cc34)n2C)C1 [Example 39, N-(1-acryloylazetidin-3-yl)-2-(((6-chloro-5-ethyl-1H-indazol-3-yl)amino)methyl)-1-methyl-1H-imidazole-5-carboxamide]","C (a binding rate of 40% or more and less than 60% is rated “C,”)"
16,"C=CC(=O)N1CC(NC(=O)c2cnc(CNc3n[nH]c4cc(Cl)c(C(C)(C)C)nc34)n2C)C1 [Example 40, N-(1-acryloylazetidin-3-yl)-2-(((5-(tert-butyl)-6-chloro-1H-pyrazolo[4,3-b]pyridin-3-yl)amino)methyl)-1-methyl-1H-imidazole-5-carboxamide]","A (a binding rate of 80% or more is rated “A,”)"
17,"C=CC(=O)N1CC(NC(=O)c2c(C)nc(CNc3n[nH]c4cc(C)c(C(C)(C)C)cc34)n2C)C1 [Example 41, N-(1-acryloylazetidin-3-yl)-2-(((5-(tert-butyl)-6-methyl-1H-indazol-3-yl)amino)methyl)-1,4-dimethyl-1H-imidazole-5-carboxamide]","A (a binding rate of 80% or more is rated “A,”)"
18,"C=CC(=O)N1CC(NC(=O)c2c(C)nc(CNc3n[nH]c4ccc(C(C)(C)C)cc34)n2C(C)C)C1 [Example 42, N-(1-acryloylazetidin-3-yl)-2-(((5-(tert-butyl)-1H-indazol-3-yl)amino)methyl)-1-isopropyl-4-methyl-1H-imidazole-5-carboxamide]","B (a binding rate of 60% or more and less than 80% is rated “B,”)"
19,"C=CC(=O)N1CC(NC(=O)c2c(Cl)nc(CNc3n[nH]c4cc(Cl)c(C(=C)C(F)(F)F)cc34)n2C(C)C)C1 [Example 43, N-(1-acryloylazetidin-3-yl)-4-chloro-2-(((6-chloro-5-(3,3,3-trifluoroprop-1-en-2-yl)-1H-indazol-3-yl)amino)methyl)-1-isopropyl-1H-imidazole-5-carboxamide]","C (a binding rate of 40% or more and less than 60% is rated “C,”)"
20,"C=CC(=O)N1CC(NC(=O)c2c(Cl)nc(CNc3n[nH]c4cc(Cl)c(C5(C(F)(F)F)CC5)cc34)n2C(C)C)C1 [Example 44, N-(1-acryloylazetidin-3-yl)-4-chloro-2-(((6-chloro-5-(1-(trifluoromethyl)cyclopropyl)-1H-indazol-3-yl)amino)methyl)-1-isopropyl-1H-imidazole-5-carboxamide]","B (a binding rate of 60% or more and less than 80% is rated “B,”)"
21,"C=CC(=O)N1CC(NC(=O)c2c(Cl)nc(CNc3n[nH]c4cc(Cl)c(C(C)C)cc34)n2C(C)C)C1 [Example 45, N-(1-acryloylazetidin-3-yl)-4-chloro-2-(((6-chloro-5-isopropyl-1H-indazol-3-yl)amino)methyl)-1-isopropyl-1H-imidazole-5-carboxamide]","A (a binding rate of 80% or more is rated “A,”)"

# Source: patent US12065430B2, “Indazole compound or salt thereof” (TAIHO PHARMACEUTICAL CO., LTD., priority 2018, dated 2024)
